One assay deals with T1, cytosolic β-glucosidase (Homo sapiens, UniProt Q9H227).
T1 construct: human liver extracts; from tissue; host or cells: human liver extracts
T1 sequence (Q9H227 1-469): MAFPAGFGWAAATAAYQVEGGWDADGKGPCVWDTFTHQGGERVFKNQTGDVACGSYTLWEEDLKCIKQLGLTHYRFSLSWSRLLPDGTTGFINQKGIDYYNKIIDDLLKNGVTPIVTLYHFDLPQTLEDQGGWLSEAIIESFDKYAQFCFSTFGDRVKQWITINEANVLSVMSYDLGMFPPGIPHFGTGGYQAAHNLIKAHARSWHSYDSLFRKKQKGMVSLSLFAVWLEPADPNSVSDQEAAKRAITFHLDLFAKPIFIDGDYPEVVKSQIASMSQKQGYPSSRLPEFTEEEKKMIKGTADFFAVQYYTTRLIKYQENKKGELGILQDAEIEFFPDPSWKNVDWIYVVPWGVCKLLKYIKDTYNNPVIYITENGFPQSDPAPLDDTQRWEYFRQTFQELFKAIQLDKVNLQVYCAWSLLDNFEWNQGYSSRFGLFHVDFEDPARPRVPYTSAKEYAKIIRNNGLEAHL
The experiment in a line: Human liver glycosidase assay, cytosolic β-glucosidase. Format: biochemical. The settings on record: for inhibition at 1000 µM: 1 mM compound; for IC50: read-out: I50, cytosolic β-glucosidase. As to the method: (§1) Melting points were recorded on a Kofler hot block. Proton nuclear magnetic resonance (δH) spectra were recorded on Varian Gemini 200 (at 200 MHz), Bruker WH 300 (300 MHz), or Bruker AM 500 (500 MHz) spectrometers. Carbon nuclear magnetic resonance (δC) spectra were recorded on a Varian Gemini 200 (50 MHz) or a Bruker 250 (62.9 MHz) spectrometer. Multiplicities were assigned using DEPT sequence on the Gemini and by off resonance decoupling on the Bruker. Spectra run in D2 O were referenced to methanol as an internal standard. All chemical shifts are quoted on the δ-scale. Infrared spectra were recorded on a Perkin-Elmer 297, or on a Perkin-Elmer 781 spectrophotometer. Mass spectra were recorded on VG Micromass 30F, ZAB lF, Masslab 20-250 or Trio-1 GCMS (DB-5 column) spectrometers using desorption chemical ionization (NH3 DCI), electron impact (EI), chemical ionization (NH3 CI) and fast atom bombardment (FAB) techniques, as stated. […] Concentrations were given in g/100 ml. Hydrogenations were run under an atmosphere of hydrogen gas maintained by inflated balloon. Microanalyses were performed by the microanalysis service of the DysonPerrins laboratory, Oxford UK. Thin layer chromatography (t.l.c.) was carried out on aluminum sheets coated with 60F254 silica. Plates were developed using either 5% v/v concentrated sulphuric acid in methanol, 0.2% w/v cerium (IV) sulphate and 5% ammonium molybdate in 2M sulphuric acid and 0.5% ninhydrin in methanol. Flash chromatography was carried out using Sorbsil C60 40/60 silica. Ion-exchange chromatography was performed using Dowex 50W-X8 (H) and Sigma CG 400 (Cl) resins. The resins were washed with 2M hydrochloric acid and 2M sodium hydroxide solution, respectively, and subsequently with distilled water, prior to use. Solvents and commercially available reagents were dried and purified before use according to standard procedures; dichloromethane was refluxed over and distilled from calcium hydride, N,N-dimethylformamide was distilled under reduced pressure from calcium hydride, methanol was distilled from magnesium methoxide, pyridine was distilled from, and stored over, potassium hydroxide and tetrahydrofuran was distilled from a purple solution of sodium benzophenone ketyl immediately before use. Hexane was distilled at 68° C. before use to remove involatile fractions. 2,3-O-Isopropylidene-L-gulono-1,4-lactone (9) [H. Ogura et al., J. Oro. Chem. 37, 72 (1972); G. W. J. Fleet Tetrahedron 45, 319 (1989)]and 2,3-O-isopropylidene-D-gulono-1,4-lactone (15) [L. M. Lerner et al., J. Org. […]
(§2) The enzymes included human liver glycosidases and naringinase. The latter enzyme is a readily available endo-L-rhamnosidase described by Romero et al., Anal. Biochem. 149, 566 (1985).

For another assay, the target named is T2, β-mannosidase (Homo sapiens, UniProt O00462).
T2 sequence (O00462 18-879): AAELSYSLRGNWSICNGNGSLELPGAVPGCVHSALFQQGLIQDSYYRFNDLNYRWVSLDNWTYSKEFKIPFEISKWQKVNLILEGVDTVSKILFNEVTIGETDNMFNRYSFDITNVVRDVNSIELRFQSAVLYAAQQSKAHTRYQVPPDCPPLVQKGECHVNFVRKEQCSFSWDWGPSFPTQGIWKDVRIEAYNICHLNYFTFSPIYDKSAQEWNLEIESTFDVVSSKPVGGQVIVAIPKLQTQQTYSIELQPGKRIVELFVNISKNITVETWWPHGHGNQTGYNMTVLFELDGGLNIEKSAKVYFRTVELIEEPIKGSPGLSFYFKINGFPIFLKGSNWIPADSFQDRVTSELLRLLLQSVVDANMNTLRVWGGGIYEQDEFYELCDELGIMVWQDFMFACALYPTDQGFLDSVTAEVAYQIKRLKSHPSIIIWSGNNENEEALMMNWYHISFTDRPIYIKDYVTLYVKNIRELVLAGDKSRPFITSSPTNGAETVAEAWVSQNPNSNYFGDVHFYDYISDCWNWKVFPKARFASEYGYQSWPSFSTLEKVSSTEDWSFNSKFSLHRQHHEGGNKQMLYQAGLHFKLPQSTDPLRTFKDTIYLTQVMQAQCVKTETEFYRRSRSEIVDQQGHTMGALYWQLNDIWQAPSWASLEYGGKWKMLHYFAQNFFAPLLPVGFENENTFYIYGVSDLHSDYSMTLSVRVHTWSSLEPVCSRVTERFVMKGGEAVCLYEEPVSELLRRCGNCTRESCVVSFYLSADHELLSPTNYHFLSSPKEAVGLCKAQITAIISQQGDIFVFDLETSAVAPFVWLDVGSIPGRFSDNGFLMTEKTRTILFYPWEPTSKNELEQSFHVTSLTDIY
The experiment in a line: Human liver glycosidase assay, β-mannosidase. Details: human liver extracts; from tissue; host or cells: human liver extracts. In kind it is biochemical. On the procedure: as §1, §2

For assay [1], the system named is rat epidodymal α-mannosidases. Conditions: literature; cited from earlier work.
Another assay concerns apricot β-glucosidase. Conditions: literature; cited from earlier work.

Regarding `C[C@H]1NC(=O)[C@@H](O)[C@@H](O)[C@@H]1O` [D-Rhamno-1,5-lactam (6), 6-Deoxy-D-mannono-δ-lactam], at cytosolic β-glucosidase, the inhibition at 1000 µM was found to be 67% and the IC50 came to 700 µM. The “Inhibition of β-mannosidase (in words)” value at β-mannosidase was “inhibitor of α- and β-mannosidases”.
As to `C[C@@H]1NC(=O)[C@H](O)[C@H](O)[C@H]1O` [L-Rhamno-1,5-lactam (8), 6-Deoxy-L-mannono-δ-lactam], the “Inhibition of β-mannosidase (in words)” value on β-mannosidase is “no inhibitory activity”.
For `O=C1N[C@H](CO)[C@@H](O)[C@H](O)[C@@H]1O` [Mannono-1,5-lactam (2), D-mannonolactam], the inhibition at 1000 µM on cytosolic β-glucosidase came out at 98%; on β-mannosidase (read-out: Inhibition (%) at 1 mM, β-mannosidase), 99%. In addition, the figures for the IC50 at cytosolic β-glucosidase and on β-mannosidase were 50 µM and 10 µM, respectively. Also, the “Inhibition of rat epididymal α-mannosidase (in words)” value in assay [1] is recorded as “powerful inhibitor”. Also, in the assay with apricot β-glucosidase, the “Inhibition of apricot β-glucosidase (in words)” value was “powerful inhibitor”.
